According to PubChem BioAssay (NCI):
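Cultured in 96-well plates, cells were exposed to test compound for 48 hours across five concentrations. GI50: concentration for 50% inhibition of growth. Definition used: TGI = concentration required for complete inhibition of growth.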

Key:
Experiment in all cases: inhibition of tumour cell growth, NCI panel, 48 h
HCT-15 colon = test system: HCT-15 colon
HOP-62 NSCLC = test system: HOP-62 NSCLC
M14 melanoma = test system: M14 melanoma
MALME-3M melanoma = test system: MALME-3M melanoma
NCI-H226 lung = test system: NCI-H226 lung
NCI-H23 lung = test system: NCI-H23 lung
OVCAR-4 ovarian = test system: OVCAR-4 ovarian
SNB-19 CNS = test system: SNB-19 CNS
SNB-75 CNS = test system: SNB-75 CNS
T-47D breast = test system: T-47D breast

SMILES | TGI (HCT-15 colon) [µM] | TGI (HOP-62 NSCLC) [µM] | TGI (M14 melanoma) [µM] | TGI (MALME-3M melanoma) [µM] | TGI (NCI-H226 lung) [µM] | TGI (NCI-H23 lung) [µM] | TGI (OVCAR-4 ovarian) [µM] | TGI (SNB-19 CNS) [µM] | TGI (SNB-75 CNS) [µM] | GI50 (HCT-15 colon) [µM] | GI50 (HOP-62 NSCLC) [µM] | GI50 (M14 melanoma) [µM] | GI50 (NCI-H226 lung) [µM] | GI50 (NCI-H23 lung) [µM] | GI50 (OVCAR-4 ovarian) [µM] | GI50 (SNB-19 CNS) [µM] | GI50 (SNB-75 CNS) [µM] | GI50 (T-47D breast) [µM] | TGI (T-47D breast) [µM] | GI50 (MALME-3M melanoma) [µM]
Cc1c(C(=O)C/C(=N/NC(=O)c2ccccc2O)C(=O)Nc2ccccc2C(C)C)[n+](=O)c2ccccc2n1[O-] | > 100 | > 100 | > 100 | > 100 | > 100 | 52.8 | > 100 | > 100 | > 100 | – | – | – | – | – | – | – | – | – | – | –
Cc1cc(N(CCC#N)CCC#N)ccc1N=Nc1ccc(S(N)(=O)=O)cc1 | > 100 | > 100 | > 100 | > 100 | > 100 | > 100 | > 100 | > 100 | > 100 | – | – | – | – | – | – | – | – | – | – | –
Nc1nc(-n2c(-c3ccccc3)nc3c(Br)cc(Br)cc3c2=O)nnc1-c1cccc(Cl)c1Cl | 21.9 | 9.8 | 8.42 | – | > 100 | 53.1 | > 100 | > 100 | 46.7 | 3.1 | 2.84 | 2.64 | 24.1 | 15.7 | 51.7 | 29.9 | 8.65 | > 100 | > 100 | –
COC(=O)c1ccccc1NC(=O)C(=O)Cc1nc2c3c(ccc2[nH]c1=O)C(=O)c1ccccc1C3=O | > 100 | 39.1 | > 100 | 31 | 16.7 | 47.2 | 98 | > 100 | > 100 | – | – | – | – | – | – | – | – | – | – | –
CC1(C(=O)O)CCC[C@@]2(C)C1CC[C@@]1(C)c3cocc3CCC21 (stereo partly specified) | > 100 | > 100 | > 100 | > 100 | > 100 | > 100 | > 100 | > 100 | > 100 | – | – | – | – | – | – | – | – | – | – | –
COC(=O)CC[N+]1=CCC(c2ccccc2)(c2ccccc2)O1 | > 100 | > 100 | > 100 | – | > 100 | > 100 | > 100 | > 100 | – | – | – | – | – | – | – | – | – | – | > 100 | –
C=CCO[C@H]1CO[C@H]2[C@@H]1OC[C@@H]2Oc1ccc(Nc2ccnc(Nc3ccc(O[C@H]4CO[C@H]5[C@@H]4OC[C@@H]5OCC=C)c(Cl)c3)n2)cc1Cl | 3.06 | 4.01 | 3.4 | 2.91 | 72.3 | 3.71 | 2.93 | 3.73 | 3.31 | 1.48 | 1.93 | 1.77 | 7.46 | 1.79 | 1.57 | 2 | 1.86 | – | – | 1.54
COc1cc2c(c3oc4c(O)cccc4c(=O)c13)CC(C(C)(O)CO)O2 (stereo unspecified) | > 100 | > 100 | > 100 | > 100 | > 100 | > 100 | – | > 100 | – | – | – | – | – | – | – | – | – | – | > 100 | –
CO/C(=N\N=C\c1ccc(C(F)(F)F)cc1)c1ccncc1 | > 10 | > 10 | > 10 | > 10 | > 10 | > 10 | > 10 | > 10 | – | – | – | – | – | – | – | – | – | – | > 10 | –
COC(CCC[N+](C)(C)C)CC[N+](C)(C)C (stereo unspecified) | > 100 | > 100 | > 100 | > 100 | > 100 | > 100 | > 100 | > 100 | > 100 | – | – | – | – | – | – | – | – | – | – | –
